Measurements as given in ChEMBL document CHEMBL1128797, “Annohexocin, a novel mono-THF acetogenin with six hydroxyls, from Annona muricata (Annonaceae)” (Bioorg Med Chem Lett, 1995).
In brackets after ≈: the same amount, converted by molar mass.

How the values were obtained:
HT-29 = assay: Cytotoxic activity was tested against human HT-29 (colon adenocarcinoma) cell line; format: functional; details: read-out: ED50 (the source's name)
MIA PaCa-2 [1] = assay: Cytotoxic activity was tested against human PAC-2 (pancreatici carcinoma) cell line; format: functional; details: read-out: ED50 (the source's name)
A498 = assay: Cytotoxic activity was tested against human A-498 (Kidney carcinoma) cell line; format: functional; details: read-out: ED50 (the source's name)
MCF7 = assay: Cytotoxic activity was tested against human MCF-7 (breast carcinoma) cell line; format: functional; details: read-out: ED50 (the source's name)
PC-3 = assay: Cytotoxic activity was tested against human PC-3 (prostate adenocarcinoma) cell line; format: functional; details: read-out: ED50 (the source's name)
A549 = assay: Cytotoxic activity was tested against human […] cell line A-549 (lung carcinoma); format: functional; details: read-out: ED50 (the source's name)
MIA PaCa-2 [2] = assay: Cytotoxic activity was tested against humanPAC-2 (pancreatic carcinoma) cell line; format: functional; details: Homo sapiens, read-out: ED50 (the source's name)
[3] = Compound was tested for brine shrimp lethality (BST); format: organism-based; details: artemia, in vivo

COc1cccc2c1C(=O)c1c(O)c3c(c(O)c1C2=O)C[C@@](O)(C(=O)CO)C[C@@H]3O[C@H]1C[C@H](N)[C@H](O)[C@H](C)O1 [DOXORUBICIN]
EC50 (HT-29): 0.0896 µg/mL (≈ 0.165 µM)
EC50 (MIA PaCa-2 [1]): 0.031 µg/mL (≈ 0.057 µM)
EC50 (A498): 0.0335 µg/mL (≈ 0.0616 µM)
EC50 (MCF7): 0.43 µg/mL (≈ 0.791 µM)
EC50 (PC-3): 0.33 µg/mL (≈ 0.607 µM)
EC50 (A549): 0.0346 µg/mL (≈ 0.0637 µM)

CCCCCCCCCCCCC(O)C1CCC(C(O)CCC(O)CC(O)CC(O)CCCC(O)CC2=CC(C)OC2=O)O1 (stereo not drawn)
EC50 (HT-29): 0.78 µg/mL (≈ 1.24 µM)
EC50 (MIA PaCa-2 [2]): 0.77 µg/mL (≈ 1.22 µM)
EC50 (A498): 2.36 µg/mL (≈ 3.75 µM)
EC50 (MCF7): 2.26 µg/mL (≈ 3.59 µM)
EC50 (PC-3): 0.0195 µg/mL (≈ 0.031 µM)
LC50 [3]: 34.4 µg/mL (≈ 54.7 µM)
EC50 (A549): 0.34 µg/mL (≈ 0.541 µM)
